“Also recorded” adds a separate entry of the source. Values belong to the molecule of their own block, whether it stands above or below them. Bridges are numbered along the chain shown (N, C = ends). Roman numbers before positions name the chains, in order. Where no end group is shown, it is not given here.
Tests used:
FGFR/KL-complex = molecular target: T1, FGFR/KL-complex (Homo sapiens, UniProt Q9UEF7); assay: FGF23-antagonism measured by relative p-Erk levels in 293/KL cells; type: cell-based; details: for IC50: p-Erk
T1 construct: expressed in transfected cells; host or cells: 293T HEK cells overexpressing human KL (293/KL)
T1 sequence (Q9UEF7 34-1012): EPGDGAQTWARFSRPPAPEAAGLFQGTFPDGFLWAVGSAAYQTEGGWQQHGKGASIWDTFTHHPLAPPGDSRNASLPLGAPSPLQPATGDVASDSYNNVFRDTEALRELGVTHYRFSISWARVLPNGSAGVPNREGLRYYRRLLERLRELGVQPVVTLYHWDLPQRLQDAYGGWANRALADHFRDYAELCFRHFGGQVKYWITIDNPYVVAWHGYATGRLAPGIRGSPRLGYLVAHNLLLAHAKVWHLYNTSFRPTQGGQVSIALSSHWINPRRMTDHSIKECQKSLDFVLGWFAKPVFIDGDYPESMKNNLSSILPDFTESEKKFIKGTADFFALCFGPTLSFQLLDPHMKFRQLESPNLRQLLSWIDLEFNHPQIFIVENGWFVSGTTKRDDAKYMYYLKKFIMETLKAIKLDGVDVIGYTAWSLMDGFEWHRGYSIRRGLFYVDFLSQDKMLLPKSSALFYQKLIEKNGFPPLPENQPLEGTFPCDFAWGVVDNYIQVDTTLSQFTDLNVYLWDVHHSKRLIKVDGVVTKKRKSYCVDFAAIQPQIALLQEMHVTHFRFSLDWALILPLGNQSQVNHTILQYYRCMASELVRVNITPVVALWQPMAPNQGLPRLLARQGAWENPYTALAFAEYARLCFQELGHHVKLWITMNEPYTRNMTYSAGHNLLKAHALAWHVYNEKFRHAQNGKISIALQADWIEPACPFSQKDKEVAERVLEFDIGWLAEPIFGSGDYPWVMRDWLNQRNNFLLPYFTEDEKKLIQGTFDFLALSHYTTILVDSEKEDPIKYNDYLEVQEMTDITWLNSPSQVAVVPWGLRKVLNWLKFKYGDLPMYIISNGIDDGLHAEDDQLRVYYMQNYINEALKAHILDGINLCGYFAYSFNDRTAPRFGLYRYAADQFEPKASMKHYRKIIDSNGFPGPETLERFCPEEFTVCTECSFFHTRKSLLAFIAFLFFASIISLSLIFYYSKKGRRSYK
Excerpt: FIGS. 1A-1F Structure activity analysis among the two KL-interacting peptides C26 and C28. FIG. 1A provides a schematic representation of FGF23 showing the Amino terminal FGF23 core (amino acids 25-179) and the C-terminal portion that comprises two Klotho interaction sites “C26” (amino acids 180-205) and “C28” (amino acids 212-239); FIGS. 1B-1F are graphs presenting FGF23-antagonism measured by the relative p-Erk levels in 293/KL cells with increasing doses of the peptide antagonist. (FIG. 1B) compares C26 and C28; FIG. 1C is a graph showing the effect of the substitutions from C28 sequence into the C26 sequence on the peptide activity, comparing peptides C26(●), 1(▪), 2( ? ), 3(▴), and 4(○); FIG. 1D is a graph showing the effect of the substitutions from C28 sequence in the C26 sequence on the peptide activity, C28(●), 5(▪), 6( ? ), and 7(▴); FIGS. 1E & 1F are graphs showing the activity of shortened FGF23 C-terminal peptide antagonist in vitro. For FIG. 1E peptides C26(●), 8(▪), 9( ? ) are compared; For FIG. 1F peptides 6(●), 10(▪), 11( ? ), and 12(▴).
FIGS. 4A & 4B provide data relating to mutation of the C-terminal FGF23 peptides to assess their KL-interaction site by study of FGF23-activity antagonism in 293/KL cells. FGF23 C-terminal peptides tested for their ability to block FGF23-signaling measured by relative p-Erk levels are shown in FIG. 4A for peptides C26 (●), C28(▪), C26A1(T ? , FGF23^180-205, A^188), C28A2(▴, FGF23^212-239, A^222); and in FIG. 4B for peptides C72(●, FGF23^180-251), C72A1(▪, FGF23^180-251, A^188), C72 A2 ( ? , FGF23^180-251, A^222), C72A1A2(▴, FGF23^180-251, A^188,222). […]

FGFR/KL complex = assay: FGF23-signaling activity (stimulation of Erk-phosphorylation) in 293/KL cells; type: cell-based, human
Description: (§1) FIGS. 5A-5D provide data relating to the activities of FGF23-analogs containing one or two active KL-interaction sites by in vitro and in vivo methods. […] FIGS. 5B-5D are scatter plots presenting an in vivo assessment of FGF23-activity in mice. WT mice were treated with 0.5 mg/kg body weight with either FGF23, FGF23 A^188, FGF23 A^222, FGF23 A^188,222, or vehicle, n=5 or 10/group, and post 3-hours the gene expression changes were studied by quantitative real time PCR for target genes, FIG. 5B represents measurement of Cyp24a1, FIG. 5C represents measurement of Cyp27b1, and FIG. 5D represents measurement of Egr1. The data is presented as a scatter plot where each dot represents one animal, mean ±SEM. One-way ANOVA with Tukey's comparison was employed for statistical analyses where***P<0.001 vs. vehicle; #P<0.05, ##P<0.01, ###P<0.001 vs FGF23; and $$$P<0.001 vs FGF23 A^188,222 was calculated.
Whether FGF23-based agonism can employ each of the two KL-interaction sites as witnessed in the C72 peptide antagonist was studied. To do so, a selective mutation at position Asp188 or Asp222 was made in the native FGF23. […] This is consistent with prior reports where C-terminal sequence deletion after residue 205 position had no apparent effect on cellular signaling (FIG. 5A, Table 3). […] Asp188 residue is purported to be singularly essential for KL-binding and FGF23 activity, and its importance was substantiated by the lack of antagonism when the C26 peptide was similarly mutated from Asp to Ala (FIG. 4A). […] To confirm that these observations were not resulting from unexpected changes in higher order structure that was not apparent in biosynthesis, purification, or formulation of the mutant proteins their biophysical integrity were directly assessed by thermal denaturation.
The N-terminal domain of the endocrine FGFs primarily determines the FGFR-activation while the C-terminal sequence guides the co-receptor specificity with a Klotho co-receptor, KL or KLB. The receptor complex specificity among the endocrine FGF-proteins can be modulated by altering their C-terminal domains. Consequently, two FGF21-23 chimeric protein analogs were prepared containing the FGF21 N-terminal core with its C-terminal KLB-binding peptide replaced with an FGF23 C-terminal peptide sequence constituted by C72 (FGF21-23 C72) or C26 (FGF21-23 C26) (Table 3).

[1] = tested on: FGFR/KL-downstream targets Cyp24a1, Cyp27b1 and Egr1; assay: Mouse kidney gene expression after FGF23 protein analogs (quantitative real time PCR); type: in vivo; details: WT mice, 0.5 mg/kg, 3 hours
Description: as §1
To test whether C28 as the second KL-interaction site can promote FGF23 in vivo activity, the single site FGF23-analogs were assessed for their ability to alter kidney gene expression in normal mice. Four proteins (FGF23, FGF23 A188, FGF23 A222 or FGF23 A188, 222 analogs) were each dosed to mice 0.5 mg/kg and 3 hours later quantitative real time PCR was employed to assess kidney mRNA expression of the FGFR/KL-downstream targets Cyp24a1, Cyp27b1 and early growth response protein 1 (Egr1). […] This is not surprising since the optimal treatment time for Egrl modulation is as early as 1 hour for FGF-signaling measurements. The magnitude in upregulation of gene expression for Cyp24a1 was the highest, with twenty-fold induction by native FGF23 treatment (FIG. 5B). […] Similarly, the Egrl induction is reduced for FGF23 A188 and FGF23 A222 analogs as compared to native FGF23 (P<0.05, FIG. 5D), but no difference is observed among the analogs and FGF23 for Cyp27b1 (FIG. 5C).

[2] = Table 2, block of FGF23-signaling
[3] = Table 1, block of FGF23-signaling

Molecule: ASDPLGVVRPRARM [Peptide 11]
IC50 (FGFR/KL-complex; [2]): 17.1 ± 0.6 nM

Molecule: ERDPLNVLKPRARM [Peptide 8]
IC50 (FGFR/KL-complex; [2]): 97 ± 30.3 nM

Molecule: I: SAEDDSERDPLNVLKPRARMTPAPASGPEGC / II: SAEDDSERDPLNVLKPRARMTPAPASGPEGC (disulfide I:31-II:31) [Peptide 17]
enhancement of FGF23-antagonistic potency of dimer compared to corresponding monomers (FGFR/KL-complex; fold): approximately twenty to fifty-fold

Molecule: I: SAEDNSPMASAPLGVVRPRARMTHAGGTGPEGC / II: SAEDNSPMASDPLGVVRPRARMTHAGGTGPEGC (disulfide I:33-II:33) [Peptide 22]
FGF23-antagonist activity (in words) (FGFR/KL-complex): reduced in potency relative to C72 and peptide 20

Molecule: I: SAEDNSPMASDPLGVVRGGRVNTHAGGTGPEGC / II: SAEDDSERDPLNVLKPRARMTPAPASGPEGC (disulfide I:33-II:31) [Peptide 19]
FGF23-antagonist activity (in words) (FGFR/KL-complex): indistinguishable from the activity of the two homodimers
enhancement of FGF23-antagonistic potency of dimer compared to corresponding monomers (FGFR/KL-complex; fold): approximately twenty to fifty-fold

Molecule: I: SAEDNSPMASDPLGVVRPRARMTHAGGTGPEGC / II: SAEDNSPMASDPLGVVRPRARMTHAGGTGPEGC (disulfide I:33-II:33) [Peptide 20]
FGF23-antagonist activity (in words) (FGFR/KL-complex): equal to that of C72; also recorded: no greater potency than C72

Molecule: PMASDPLGVVRPRARM [Peptide 10]
IC50 (FGFR/KL-complex; [2]): 3.8 ± 0.9 nM

B1: FGF21: FGF21^29-209 (protein)
chain: HPIPDSSPLLQFGGQVRQRYLYTDDAQQTEAHLEIREDGTVGGAADQSPESLLQLKALKPGVIQILGVKTSRFLCQRPDGALYGSLHFDPEACSFRELLLEDGYNVYQSEAHGLPLHLPGNKSPHRDPAPRGPARFLPLPGLPPALPEPPGILAPQPPDVGSSDPLSMVGPSQGRSPSYAS
FGF23-type agonism / FGFR/KL activation (in words) (FGFR/KL complex): unable to activate

B2: FGF23 A^222: FGF23^25-240, A^222 (protein)
chain: YPNASPLLGSSWGGLIHLYTATARNSYHLQIHKNGHVDGAPHQTIYSALMIRSEDAGFVVITGVMSRRYLCMDFRGNIFGSHYFDPENCRFQHQTLENGYDVYHSPQYHFLVSLGRAKRAFLPGMNPPPYSQFLSRRNEIPLIHFNTPIPRRHTRSAEDDSERDPLNVLKPRARMTPAPASCSQELPSAEDNSPMASAPLGVVRGGRVNTHAGGTG
FGF23-type agonism / FGFR/KL activation (in words) (FGFR/KL complex): comparable potency to native protein
EC50 (FGFR/KL complex; Table 3, p-Erk): 0.29 ± 0.12 nM
kidney Cyp24a1 mRNA expression vs vehicle [1]: significant elevation
kidney Cyp27b1 mRNA expression vs vehicle [1]: coordinate suppression
Egr1 induction as compared to native FGF23 ([1]; kidney): reduced
magnitude of Cyp24a1 effect as compared to native FGF23 ([1]; kidney): fractionally reduced

B3: FGF23^180-251: SAEDD SER-- DPLNV LKPRA RMTPA PAS CSQELP SAEDNSPMASDPLGVVRGGRVNTHAGGT GPEGC RPFAKFI (peptide)
chain: SAEDDSERDPLNVLKPRARMTPAPASCSQELPSAEDNSPMASDPLGVVRGGRVNTHAGGTGPEGCRPFAKFI
IC50 (FGFR/KL-complex; [3]): 1.2 nM
enhancement of antagonistic potency relative to C26 (FGFR/KL-complex; fold): seventy
enhancement of antagonistic potency relative to C28 (FGFR/KL-complex; fold): thirty-fold

Second part, the molecule after the results:

IC50 (FGFR/KL-complex; [2]): 70.9 ± 29.5 nM
Molecule: DPLGVVRPRARM [Peptide 12]

IC50 (FGFR/KL-complex; [2]): 542 ± 282 nM
Molecule: DPLNVLKPRARM [Peptide 9]

enhancement of FGF23-antagonistic potency of dimer compared to corresponding monomers (FGFR/KL-complex; fold): approximately twenty to fifty-fold
Molecule: I: SAEDNSPMASDPLGVVRGGRVNTHAGGTGPEGC / II: SAEDNSPMASDPLGVVRGGRVNTHAGGTGPEGC (disulfide I:33-II:33) [Peptide 18]

FGF23-antagonist activity (in words) (FGFR/KL-complex): complete loss of activity
Molecule: SAEDDSERAPLNVLKPRARMTPAPASCSQELPSAEDNSPMASAPLGVVRGGRVNTHAGGTGPEGCRPFAKFI [C72 A1A2, FGF23^180-251, A^188,222]

IC50 (FGFR/KL-complex; [3]): 24.5 ± 11.5 nM
reduction in inhibitory potency relative to C72 (FGFR/KL-complex; fold): more than twenty-fold
Molecule: SAEDDSERAPLNVLKPRARMTPAPASCSQELPSAEDNSPMASDPLGVVRGGRVNTHAGGTGPEGCRPFAKFI [C72 A1, FGF23^180-251, A^188]

IC50 (FGFR/KL-complex; [3]): 33.1 ± 15.8 nM
reduction in inhibitory potency relative to C72 (FGFR/KL-complex; fold): more than twenty-fold
Molecule: SAEDDSERDPLNVLKPRARMTPAPASCSQELPSAEDNSPMASAPLGVVRGGRVNTHAGGTGPEGCRPFAKFI [C72 A2, FGF23^180-251, A^222]

enhancement of antagonistic potency relative to C28 (FGFR/KL-complex; fold): two to three-fold
Molecule: SAEDNSPMASDPLGVVRGGRVNTHAGGTGPEGCRPFAKFI [C40]

Source: patent US20230382966A1, “NOVEL KLOTHO INTERACTION SITE IN THE C-TERMINUS OF FGF23” (INDIANA UNIVERSITY RESEARCH AND TECHNOLOGY CORPORATION, priority 2020, published 2023)
